Measured values published in patent US9072741B2, “Methods of treating liver fibrosis and pre-cirrhosis with epidermal growth factor receptor inhibitors” (The General Hospital Corporation, priority 2009, dated 2015).

Columns and labels:
[1] = test system: activated hepatic stellate cells; test: α-SMA staining of liver sections for activated hepatic stellate cells in DEN-treated rats; assay type: in vivo, male Wistar rats
Method: FIGS. 2B-2G are a series of six panels showing representative pictures of Masson's trichome (B-D) and α-SMA stains (E-G) of liver sections from rats receiving weekly intraperitoneal injections of DEN (50 mg/kg) for 18 weeks and (B and E) vehicle only, (C and F) 0.5 mg/kg erlotinib (Erl 0.5), or (D and G) 2 mg/kg erlotinib (Erl 2) during weeks 12-18.
FIGS. 6B-6E are a series of four panels showing representative pictures of Masson's trichrome (B-C) and α-SMA stains (D-E) of liver sections from rats receiving weekly intraperitoneal injections of DEN (50 mg/kg) for 18 weeks and (B and D) vehicle only or (C and E) 18 mg/kg lapatinib during weeks 12-18.
Repeated injury to the liver causes damage to hepatocytes and activates resident macrophages called Kupffer cells. Damaged hepatocytes and activated Kupffer cells secrete cytokines and growth factors into the liver milieu, which activate hepatic stellate cells (Friedman, Gastroenterology 134:1655-69, 2008). Normally, hepatic stellate cells are quiescent and store vitamin A and fat. Upon activation, they differentiate into a myofibroblast-phenotype and express α-smooth muscle actin (α-SMA) (Friedman, Gastroenterology 134:1655-69, 2008). […] The degree of liver disease (fibrosis versus cirrhosis) is pathologically assessed through trichrome staining of collagen by the method of Ishak (Mod Pathol 7:690-713, 1994). […]

[2] = test system: DEN-induced hepatotoxicity and liver failure; test: Liver function tests on serum (AST, TBIL, Glu) of DEN-treated rats; assay type: in vivo, male Wistar rats; conditions: n=4
Method: FIGS. 4A, 4B, and 4C are a series of three bar graphs showing the levels of (A) aspartate transaminase (AST), (B) total bilirubin (TBIL), and (C) total glucose (Glu) in serum from rats treated with PBS for 18 weeks or DEN (50 mg/kg) for 18 weeks plus either vehicle, 0.5 mg/kg erlotinib (Erl 0.5), or 2 mg/kg erlotinib (Erl 2) during weeks 12-18. *, significant.
FIGS. 7A, 7B, and 7C are a series of three bar graphs showing levels of (A) aspartate transaminase (AST), (B) total bilirubin (TBIL), and (C) total glucose (Glu) in serum from rats treated with DEN (50 mg/kg) for 18 weeks plus either vehicle or 18 mg/kg lapatinib during weeks 12-18. *, significant.
During fibrosis, hepatic stellate cells are activated and deposit fibrous collagen into the space of Disse, the area between the hepatocytes and the sinusoid containing blood plasma. The deposition of collagen inhibits the normal exchange of nutrients and wastes between the hepatocytes and plasma resulting in hepatotoxicity and liver failure. The degree of liver toxicity and failure can be assessed by measuring several proteins or a carbohydrate present in the serum. For example, aspartate aminotransferase (AST) is an enzyme present in hepatocytes that is released into the serum when hepatocytes die. Bilirubin (TBIL) is the breakdown product of heme and its levels become elevated in the serum if hepatocytes cannot properly metabolize it. Finally, liver failure will result in lower levels of glucose (Glu) production causing serum Glu levels to drop.
The levels of AST, TBIL, and Glu were assayed in serum from rats treated with erlotinib. Male Wistar rats (n=4) were treated with PBS for 18 weeks or a weekly intraperitoneal injection of 50 mg/kg DEN for 18 weeks plus either vehicle, 0.5 mg/kg erlotinib (Erl 0.5), or 2 mg/kg erlotinib (Erl 2) between weeks 12 and 18. Whole blood was isolated from the rats and allowed to clot for 2 hours at room temperature. The blood was then spun at 2,000 rpm for 10 minutes and serum (top layer) was isolated. Liver function tests were performed on serum from the rats. In the current model, intraperitoneal administration of DEN causes both hepatotoxicity and liver failure to increase over time as assessed by these three markers. However, compared to vehicle controls, erlotinib reduced the degree of hepatotoxicity and liver failure in a dose-dependent fashion. Specifically, erlotinib decreased serum levels of AST and TBIL and increased serum levels of Glu (FIGS. 4A-C).
Levels of AST, TBIL, and Glu were assayed in serum from rats treated with lapatinib. Male Wistar rats (n=4) were treated with PBS for 18 weeks or a weekly intraperitoneal injection of 50 mg/kg DEN for 18 weeks plus either vehicle or 18 mg/kg lapatinib between weeks 12 and 18. Whole blood was isolated from the rats and allowed to clot for 2 hours at room temperature. The blood was then spun at 2,000 rpm for 10 minutes and serum (top layer) was isolated. Liver function tests were performed on serum from the rats. In the current model, intraperitoneal administration of DEN causes both hepatotoxicity and liver failure to increase over time as assessed by these three markers. However, compared to vehicle controls, lapatinib reduced the degree of hepatotoxicity and liver failure. Specifically, lapatinib decreased serum levels of AST and TBIL and increased serum levels of Glu (FIGS. 7A-C).

[3] = 0.5 and 2 mg/kg weeks 12-18 vs vehicle, dose-dependent
[4] = 18 mg/kg weeks 12-18 vs vehicle

Structure (SMILES)	activation of hepatic stellate cells (α-SMA staining) ([1]; 0.5 and 2 mg/kg weeks 12-18 vs vehicle)	serum level of AST [2, 3]	serum level of Glu [2, 3]	serum level of TBIL [2, 3]	activation of hepatic stellate cells (α-SMA staining) [1, 4]	serum level of AST [2, 4]	serum level of Glu [2, 4]	serum level of TBIL [2, 4]
C#Cc1cccc(Nc2ncnc3cc(OCCOC)c(OCCOC)cc23)c1 [erlotinib, 4-Quinazolinamine, N-(3-ethynylphenyl)-6,7-bis(2-methoxyethoxy)]	dramatically decreased the activation of hepatic stellate cells in a dose-dependent fashion	decreased	increased	decreased				
CS(=O)(=O)CCNCc1ccc(-c2ccc3ncnc(Nc4ccc(OCc5cccc(F)c5)c(Cl)c4)c3c2)o1 [lapatinib, 4-Quinazolinamine, N-(3-chloro-4-((3-fluorophenyl)methoxy)phenyl)-6-(5-(((2-(methylsulfonyl)ethyl)amino)methyl)-2-furanyl)]					dramatically decreased the activation of hepatic stellate cells in a dose-dependent fashion	decreased	increased	decreased
